Measurements taken from patent publication US8420634B2, “Amidine, thiourea and guanidine derivatives of 2-aminobenzothiazoles and aminobenzothiazines for their use as pharmacological agents for the treatment of neurodegenerative pathologies” (Rottapharm S.p.A., priority 2007, dated 2013).
Counter-ions that a name gives are not always drawn.

Test system: cortical slices
Test: in vitro ischemia (oxygen-glucose deprivation/re-oxygenation): LDH activity released during re-oxygenation
Format: cell-based
Conditions: rat cortical slices, concentrations of 0.1-1 μM
Experimental: (§1) Said in vitro ischemia model is generally accepted as a comprehensive model for the study and selection of products with neuroprotective activity.
Male Sprague-Dawley rats (350-450 g; Charles River Italia, Calco, Italy) have been sacrificed following anaesthesia (i.p. injection of 30 mg/kg ketamine hydrochloride and 8 mg/kg xylazine hydrochloride). The brain is rapidly removed and placed in aCSF (artificial Cerebro Spinal Fluid, composition expressed in mM: 120 NaCl, 2.5 KCl, 1.3 MgCl2, 1.0 NaH2PO4, 1.5 CaCl2, 26 NaHCO3, 11 glucose, saturated with 95% O2 −5% CO2, with a final pH of 7.4, osmolarity 285-290 mOsmol). The cortex is removed and sectioned into slices 400 μm thick. […]
(§2) Neuronal damage is assessed quantitatively by measuring the glutamate and lactate dehydrogenase (LDH) released into the aCSF during the period of re-oxygenation. In particular, glutamate is measured fluorimetrically (excitation at 366 nm; emission at 450 nm) using the conversion of NAD^+ to NADH catalysed by glutamate dehydrogenase (Eilers et al., 1999) while LDH activity is determined spectrophotometrically by measuring the reduction in absorbance at 340 nm via the oxidation of NADH to NAD^+ (Gay et al., 1968).
All experiments have been conducted using slices obtained from at least 4 different rats. […] Data for glutamate and LDH activity is expressed as nmol/mg tissue and U/mg tissue, respectively. […]

| SMILES | reduction in LDH activity |
| --- | --- |
| CCNC(=S)Nc1nc2ccc(OC(F)(F)F)cc2s1 [Example 9, 1-Ethyl-3-[6-(trifluoromethoxy)benzothiazol-2-yl]thiourea] | remarkable reduction (a reduction in glutamic acid release and/or LDH activity to a value comprised of between 10% and 50% of that of the control sample) |

Test system: not given
Test: not given
Conditions: not given

| SMILES | melting point |
| --- | --- |
| C/C(=N\C1=Nc2ccccc2CS1)N(C)C (as salt: oxalate) [Example 18, N′-(4H-3,1-benzothiazin-2-yl)-N,N-dimethylacetamidine] | 154 to 157 °C (dec.) |
| CN/C(C)=N/C1=Nc2ccccc2SC1 (as salt: oxalate) [Example 21, N′-(2H-1,4-benzothiazin-3-yl)-N-methylacetamidine] | 164 to 166 °C (dec.) |
| CN/C(C)=N/C1=Nc2ccccc2CS1 (as salt: oxalate) [Example 17, N′-(4H-3,1-benzothiazin-2-yl)-N-methylacetamidine] | 110 to 113 °C (dec.) |
| CCCNC(=S)NC1=Nc2ccc(OC(F)(F)F)cc2CS1 [Example 32, 1-Propyl-3-[6-(trifluoromethoxy)-4H-3,1-benzothiazin-2-yl]thiourea] | 148 to 151 °C |
| CCCCNC(=S)Nc1nc2ccc(OC(F)(F)F)cc2s1 [Example 12, 1-Butyl-3-[6-(trifluoromethoxy)benzothiazol-2-yl]thiourea] | 211 °C |
| CCNC(=S)NC1=Nc2ccc(OC(F)(F)F)cc2CS1 [Example 31, 1-Ethyl-3-[6-(trifluoromethoxy)-4H-3,1-benzothiazin-2-yl]thiourea] | 169 to 172 °C |
| CCCNC(=S)Nc1nc2ccc(OC(F)(F)F)cc2s1 [Example 10, 1-Propyl-3-[6-(trifluoromethoxy)benzothiazol-2-yl]thiourea] | 226 to 228 °C |
| CC(C)NC(=S)Nc1nc2ccc(OC(F)(F)F)cc2s1 [Example 11, 1-Isopropyl-3-[6-(trifluoromethoxy)benzothiazol-2-yl]thiourea] | 242 °C |
| CCNC(=N)Nc1nc2ccc(OC(F)(F)F)cc2s1 [Example 15, 1-Ethyl-3-[6-(trifluoromethoxy)benzothiazol-2-yl]guanidine] | 127 to 129 °C |
| FC(F)(F)Oc1ccc2nc(NC(=S)Nc3ccccc3)sc2c1 [Example 13, 1-Phenyl-3-[6-(trifluoromethoxy)benzothiazol-2-yl]thiourea] | 234 °C |
| CCCNC(=N)Nc1nc2ccc(OC(F)(F)F)cc2s1 [Example 16, 1-Propyl-3-[6-(trifluoromethoxy)benzothiazol-2-yl]guanidine] | 110 to 111 °C |
| C/C(=N\C1=Nc2ccccc2SC1)N(C)C (as salt: oxalate) [Example 22, N′-(2H-1,4-benzothiazin-3-yl)-N,N-dimethylacetamidine] | 120 to 122 °C (dec.) |
| Fc1ccc(NC(=S)Nc2nc3ccc(OC(F)(F)F)cc3s2)cc1 [Example 14, 1-(4-Fluorophenyl)3-[6-(trifluoromethoxy)benzothiazol-2-yl]thiourea] | 207 °C |
| CCNC(=S)NC1=Nc2ccc(OC(F)(F)F)cc2SC1 [Example 33, 1-Ethyl-3-[7-(trifluoromethoxy)-2H-1,4-benzothiazin-3-yl]thiourea] | 199 to 201 °C |
| CCCNC(=S)NC1=Nc2ccc(OC(F)(F)F)cc2SC1 [Example 34, 1-Propyl-3-(7-trifluoromethoxy-2H-1,4-benzothiazin-3-yl)thiourea] | 180 to 182 °C |
| CCNC(=S)Nc1nc2ccc(OC(F)(F)F)cc2s1 [Example 9, 1-Ethyl-3-[6-(trifluoromethoxy)benzothiazol-2-yl]thiourea] | 199 to 200 °C |
| CCNC(=S)NC1=Nc2ccccc2CS1 [Example 29, 1-(4H-3,1-benzothiazin-2-yl)-3-ethylthiourea] | 191 to 196 °C |
| CCCNC(=S)NC1=Nc2ccccc2CS1 [Example 30, 1-(4H-3,1-benzothiazin-2-yl)-3-propylthiourea] | 180 to 184 °C |

Test system: cortical slices
Test: in vitro ischemia (oxygen-glucose deprivation/re-oxygenation): glutamate released during re-oxygenation
Format: cell-based
Conditions: rat cortical slices, concentrations of 0.1-1 μM
Experimental: as §1
Male Sprague-Dawley rats (350-450 g; Charles River Italia, Calco, Italy) have been sacrificed following anaesthesia (i.p. injection of 30 mg/kg ketamine hydrochloride and 8 mg/kg xylazine hydrochloride). The brain is rapidly removed and placed in aCSF (artificial Cerebro Spinal Fluid, composition expressed in mM: 120 NaCl, 2.5 KCl, 1.3 MgCl2, 1.0 NaH2PO4, 1.5 CaCl2, 26 NaHCO3, 11 glucose, saturated with 95% O2 −5% CO2, with a final pH of 7.4, osmolarity 285-290 mOsmol). The cortex is removed and sectioned into slices 400 μm thick.
The slices are then maintained in oxygenated aCSF supplemented with 400 μM ascorbic acid for 1 hour at room temperature.
Cortical slices total weight 33.6±2.6 mg, n=10) are incubated at 37° C., in 2 ml aCSF under a flow of 95% O2/5% CO2 for a period of 30 minutes. Oxygen-glucose deprivation is then implemented for 30 minutes by incubating in aCSF where the glucose has been substituted by sucrose and the oxygen mix air flow replaced with 95% N2/5% CO2. After the period of oxygen-glucose deprivation, the slices are placed in oxygenated aCSF for 90 minutes (re-oxygenation). In the treated samples, the compound of formula I is dissolved in aCSF at the concentrations described.
as §2
All experiments have been conducted using slices obtained from at least 4 different rats. Data is reported as the S.E.M. and “n” is defined as the sample number. Data for glutamate and LDH activity is expressed as nmol/mg tissue and U/mg tissue, respectively. One unit (U) of LDH activity is defined as the correspondent yielding one micromole of lactate in one minute. Statistical analyses have been conducted using ANOVA followed by post-hoc Dunnett tests (GraphPad INSTAT v3.00, GraphPad Software, San Diego, Calif., USA).

| SMILES | reduction in glutamate release |
| --- | --- |
| C/C(=N/c1nc2ccc(OC(F)(F)F)cc2s1)N(C)C [Example 5, N,N-dimethyl-N′-[6-(trifluoromethoxy)benzothiazol-2-yl]acetamidine] | remarkable reduction (a reduction in glutamic acid release and/or LDH activity to a value comprised of between 10% and 50% of that of the control sample) |
| CCCCNC(=S)Nc1nc2ccc(OC(F)(F)F)cc2s1 [Example 12, 1-Butyl-3-[6-(trifluoromethoxy)benzothiazol-2-yl]thiourea] | remarkable reduction (a reduction in glutamic acid release and/or LDH activity to a value comprised of between 10% and 50% of that of the control sample) |
| CCN(CC)/C(C)=N/C1=Nc2ccccc2CS1 [Example 19, N′-(4H-3,1-benzothiazin-2-yl)-N,N-diethylacetamidine] | remarkable reduction (a reduction in glutamic acid release and/or LDH activity to a value comprised of between 10% and 50% of that of the control sample) |
| CN/C(C)=N/C1=Nc2ccccc2SC1 [Example 21, N′-(2H-1,4-benzothiazin-3-yl)-N-methylacetamidine] | remarkable reduction (a reduction in glutamic acid release and/or LDH activity to a value comprised of between 10% and 50% of that of the control sample) |
| C/C(=N\C1=Nc2ccccc2CS1)N(C)C [Example 18, N′-(4H-3,1-benzothiazin-2-yl)-N,N-dimethylacetamidine] | remarkable reduction (a reduction in glutamic acid release and/or LDH activity to a value comprised of between 10% and 50% of that of the control sample) |
| CN/C(C)=N/C1=Nc2ccccc2CS1 [Example 17, N′-(4H-3,1-benzothiazin-2-yl)-N-methylacetamidine] | remarkable reduction (a reduction in glutamic acid release and/or LDH activity to a value comprised of between 10% and 50% of that of the control sample) |

Same assay, conditions: rat cortical slices, concentrations of 0.1-10 μM

| SMILES | reduction in glutamate release |
| --- | --- |
| CCCNC(=N)Nc1nc2ccc(OC(F)(F)F)cc2s1 [Example 16, 1-Propyl-3-[6-(trifluoromethoxy)benzothiazol-2-yl]guanidine] | remarkable reduction (a reduction in glutamic acid release and/or LDH activity to a value comprised of between 10% and 50% of that of the control sample) |
